Active and inactive are the calls of the source.

Series [1] can be described thus: Luminescence Cell-Based Dose Retest to Confirm Inhibitors of Cancer Stem Cells. [Related pubchem assays (depositor defined):AID2717, AID2721]. The class given is functional. The following applies: Homo sapiens.
For series [2], the target named is T1, Calpain-2 catalytic subunit (Sus scrofa, UniProt P43367).
T1 sequence (P43367 whole entry): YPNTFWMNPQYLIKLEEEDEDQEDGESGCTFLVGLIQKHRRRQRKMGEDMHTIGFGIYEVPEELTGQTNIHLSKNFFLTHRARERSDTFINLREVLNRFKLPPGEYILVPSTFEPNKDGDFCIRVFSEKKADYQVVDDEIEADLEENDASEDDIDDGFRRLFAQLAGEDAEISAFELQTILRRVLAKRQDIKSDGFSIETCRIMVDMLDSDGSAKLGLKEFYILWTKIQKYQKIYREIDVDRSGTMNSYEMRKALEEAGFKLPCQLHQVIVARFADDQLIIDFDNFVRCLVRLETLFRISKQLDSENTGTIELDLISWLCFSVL
Put plainly: m-calpain protease blockers, concentration series – biochemical, fluorogenic peptide substrate, dose response (AID 1420). It is filed as functional.

The next series has as its target Cytochrome P450 2D6 (Homo sapiens, UniProt P10635).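 Also: CYP2D6 member of a cytochrome P450 panel assay.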
For a further series, the target named is T2, Cytochrome P450 1A2 (Homo sapiens, UniProt P05177).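 Also: PubChem cytochrome P450 panel assay, CYP1A2 panel member.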
T2 sequence (P05177 whole entry): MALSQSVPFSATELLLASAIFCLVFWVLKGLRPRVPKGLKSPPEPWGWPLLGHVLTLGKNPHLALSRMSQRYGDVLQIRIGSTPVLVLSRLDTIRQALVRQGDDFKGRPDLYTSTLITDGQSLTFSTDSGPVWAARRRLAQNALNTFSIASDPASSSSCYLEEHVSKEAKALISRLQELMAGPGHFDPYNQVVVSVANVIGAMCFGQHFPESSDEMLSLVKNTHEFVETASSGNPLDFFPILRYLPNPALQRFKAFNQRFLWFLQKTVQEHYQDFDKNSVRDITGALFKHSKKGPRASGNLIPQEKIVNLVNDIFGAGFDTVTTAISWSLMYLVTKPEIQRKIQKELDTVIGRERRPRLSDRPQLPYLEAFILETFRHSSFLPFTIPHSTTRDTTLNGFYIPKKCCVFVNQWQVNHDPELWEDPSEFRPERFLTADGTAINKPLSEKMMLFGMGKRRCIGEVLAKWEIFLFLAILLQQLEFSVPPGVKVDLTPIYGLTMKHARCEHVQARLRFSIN

The target in a further series is Cytochrome P450 2C19 (Homo sapiens, UniProt P33261). Put plainly: Cytochrome panel assay with activity outcomes. Panel member name: p450-cyp2c19 Compounds with AC50 equal or less than 10 uM are considered active. The class given is functional.
Sequence of Cytochrome P450 2C19 (P33261 whole entry, the tested form may be a part): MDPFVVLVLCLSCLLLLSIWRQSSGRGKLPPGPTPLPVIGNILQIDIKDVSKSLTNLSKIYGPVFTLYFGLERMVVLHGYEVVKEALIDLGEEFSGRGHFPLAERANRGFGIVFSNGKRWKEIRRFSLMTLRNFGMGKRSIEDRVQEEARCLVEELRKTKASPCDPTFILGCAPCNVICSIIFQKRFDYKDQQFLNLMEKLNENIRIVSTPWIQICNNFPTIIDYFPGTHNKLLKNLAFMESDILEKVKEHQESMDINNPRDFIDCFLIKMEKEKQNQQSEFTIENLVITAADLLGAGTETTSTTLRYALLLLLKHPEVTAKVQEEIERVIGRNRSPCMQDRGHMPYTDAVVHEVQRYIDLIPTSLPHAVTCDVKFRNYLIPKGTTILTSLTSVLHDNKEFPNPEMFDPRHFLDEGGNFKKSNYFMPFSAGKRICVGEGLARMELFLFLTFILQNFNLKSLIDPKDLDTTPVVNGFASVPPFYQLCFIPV
Series [3] concerns the target T3, Carboxy-terminal domain RNA polymerase II polypeptide A small phosphatase 1 (Homo sapiens, UniProt Q9GZU7).
T3 sequence (Q9GZU7 whole entry): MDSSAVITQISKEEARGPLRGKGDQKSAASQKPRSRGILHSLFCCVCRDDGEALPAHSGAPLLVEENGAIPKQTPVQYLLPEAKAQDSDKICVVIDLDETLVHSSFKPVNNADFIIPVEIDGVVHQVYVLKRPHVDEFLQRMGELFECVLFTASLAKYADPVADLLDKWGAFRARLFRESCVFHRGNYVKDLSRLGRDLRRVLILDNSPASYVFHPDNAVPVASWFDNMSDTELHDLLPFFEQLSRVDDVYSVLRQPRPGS
In words: CTDSP1 inhibitors, concentration-response, biochemical, absorbance readout, ultra-high-throughput screen actives (AID 540297). It is filed as functional.

Series [4] can be described thus: reduction of Shn3 3'UTR-driven luciferase in osteoblasts – cell-based, Clone20 osteoblasts, firefly luciferase, cherry-picked, dose response (AID 624132).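 Also: firefly luciferase luminescence from reporter carrying the Shn3 3'UTR in osteoblasts.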 The class given is functional.
For a further series, the target named is Cytochrome P450 3A4 (Homo sapiens, UniProt P08684).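 Also: CYP3A4 tested as one member of a cytochrome P450 panel screen.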
Sequence of Cytochrome P450 3A4 (P08684 whole entry): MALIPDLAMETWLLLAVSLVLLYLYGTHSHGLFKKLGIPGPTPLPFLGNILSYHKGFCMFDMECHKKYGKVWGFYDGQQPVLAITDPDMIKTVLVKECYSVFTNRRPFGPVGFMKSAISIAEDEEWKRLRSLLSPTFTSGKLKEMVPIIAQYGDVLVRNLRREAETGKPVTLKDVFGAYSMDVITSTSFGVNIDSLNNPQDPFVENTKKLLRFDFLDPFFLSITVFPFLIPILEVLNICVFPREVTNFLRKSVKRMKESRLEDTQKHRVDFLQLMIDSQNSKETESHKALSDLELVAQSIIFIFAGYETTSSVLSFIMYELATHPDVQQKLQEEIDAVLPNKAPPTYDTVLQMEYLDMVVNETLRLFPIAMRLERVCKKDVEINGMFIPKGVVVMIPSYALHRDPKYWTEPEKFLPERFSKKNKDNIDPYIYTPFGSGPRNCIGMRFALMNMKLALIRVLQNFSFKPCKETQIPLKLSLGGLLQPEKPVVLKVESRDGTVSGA
The target in another series is T4, Protein skinhead-1 (Caenorhabditis elegans, UniProt P34707).
T4 sequence (P34707 whole entry): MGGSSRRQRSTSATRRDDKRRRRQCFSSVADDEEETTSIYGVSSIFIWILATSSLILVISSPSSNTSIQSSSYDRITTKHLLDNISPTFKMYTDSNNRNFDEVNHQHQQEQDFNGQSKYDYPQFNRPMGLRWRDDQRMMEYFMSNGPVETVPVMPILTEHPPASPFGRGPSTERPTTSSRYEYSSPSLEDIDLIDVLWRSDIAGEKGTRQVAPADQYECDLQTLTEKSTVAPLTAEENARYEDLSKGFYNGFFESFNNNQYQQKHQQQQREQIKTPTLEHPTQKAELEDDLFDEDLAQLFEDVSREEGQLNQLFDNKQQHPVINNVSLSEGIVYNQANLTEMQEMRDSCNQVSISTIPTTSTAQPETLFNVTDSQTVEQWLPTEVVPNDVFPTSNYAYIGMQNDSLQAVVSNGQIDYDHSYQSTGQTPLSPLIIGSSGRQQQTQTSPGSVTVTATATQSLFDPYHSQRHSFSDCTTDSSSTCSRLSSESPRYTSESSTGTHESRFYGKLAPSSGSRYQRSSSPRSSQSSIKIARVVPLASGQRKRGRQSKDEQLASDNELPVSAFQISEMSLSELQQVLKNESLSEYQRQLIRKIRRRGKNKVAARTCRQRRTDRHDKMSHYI
It is filed as functional.

Another series is described as follows: cells. It is filed as functional.
In series [5] the test system is Streptococcus sp. 'group A'. In words: Streptococcus pyogenes SK(-)GAS viability under kanamycin – luminescence, BacTiterGlo, confirmation, counter-screen for streptokinase expression inhibitor project, dose response (AID 1900). It is filed as functional, organism-based.
For the next series, the system named is Streptococcus. Put plainly: GAS UMAA2166 growth inhibition – luminescence, BacTiterGlo, counter-screen for streptokinase expression inhibitor project, dose response (AID 1915).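 Also: potency for reduction of bacterial viability or growth.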 It is filed as functional, organism-based.
Another series has as its target T5, Streptokinase A (Streptococcus pyogenes serotype M1, UniProt P10520).
T5 sequence (P10520 whole entry): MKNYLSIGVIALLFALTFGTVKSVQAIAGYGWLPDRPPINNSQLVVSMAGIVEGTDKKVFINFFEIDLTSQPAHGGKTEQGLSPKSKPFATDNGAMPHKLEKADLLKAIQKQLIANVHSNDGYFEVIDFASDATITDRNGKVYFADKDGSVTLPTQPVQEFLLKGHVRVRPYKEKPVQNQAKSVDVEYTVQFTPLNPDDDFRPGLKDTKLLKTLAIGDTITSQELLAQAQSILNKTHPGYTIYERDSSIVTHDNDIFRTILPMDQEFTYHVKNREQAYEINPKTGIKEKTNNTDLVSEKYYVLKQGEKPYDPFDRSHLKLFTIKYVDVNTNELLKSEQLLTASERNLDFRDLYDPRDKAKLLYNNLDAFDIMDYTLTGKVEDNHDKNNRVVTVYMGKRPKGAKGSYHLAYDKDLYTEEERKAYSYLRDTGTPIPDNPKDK
Put plainly: viability-normalized secreted streptokinase activity reduction – plasminogen activation absorbance, OD405, dose response (AID 1914).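 Also: secreted streptokinase activity via plasminogen activation per viability signal from cell pellet.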 The class given is functional, Streptococcus pyogenes M1 GAS.

In the next series the target is Cytochrome P450 2C9 (Homo sapiens, UniProt P11712).
Sequence of Cytochrome P450 2C9 (P11712 whole entry): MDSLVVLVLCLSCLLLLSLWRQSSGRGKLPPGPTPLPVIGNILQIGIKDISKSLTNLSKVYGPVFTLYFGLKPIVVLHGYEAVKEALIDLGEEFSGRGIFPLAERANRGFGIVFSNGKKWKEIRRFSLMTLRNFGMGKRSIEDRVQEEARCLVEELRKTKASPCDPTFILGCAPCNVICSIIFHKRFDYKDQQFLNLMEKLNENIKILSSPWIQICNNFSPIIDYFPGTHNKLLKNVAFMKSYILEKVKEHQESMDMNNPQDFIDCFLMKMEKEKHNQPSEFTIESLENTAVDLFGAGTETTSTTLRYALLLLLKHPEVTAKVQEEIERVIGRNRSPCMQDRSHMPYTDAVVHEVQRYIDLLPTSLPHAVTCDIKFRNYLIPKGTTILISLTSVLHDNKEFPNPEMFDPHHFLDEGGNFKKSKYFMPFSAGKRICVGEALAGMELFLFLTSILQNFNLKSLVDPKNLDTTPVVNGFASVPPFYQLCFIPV

Sequence of Cytochrome P450 2D6 (P10635 whole entry): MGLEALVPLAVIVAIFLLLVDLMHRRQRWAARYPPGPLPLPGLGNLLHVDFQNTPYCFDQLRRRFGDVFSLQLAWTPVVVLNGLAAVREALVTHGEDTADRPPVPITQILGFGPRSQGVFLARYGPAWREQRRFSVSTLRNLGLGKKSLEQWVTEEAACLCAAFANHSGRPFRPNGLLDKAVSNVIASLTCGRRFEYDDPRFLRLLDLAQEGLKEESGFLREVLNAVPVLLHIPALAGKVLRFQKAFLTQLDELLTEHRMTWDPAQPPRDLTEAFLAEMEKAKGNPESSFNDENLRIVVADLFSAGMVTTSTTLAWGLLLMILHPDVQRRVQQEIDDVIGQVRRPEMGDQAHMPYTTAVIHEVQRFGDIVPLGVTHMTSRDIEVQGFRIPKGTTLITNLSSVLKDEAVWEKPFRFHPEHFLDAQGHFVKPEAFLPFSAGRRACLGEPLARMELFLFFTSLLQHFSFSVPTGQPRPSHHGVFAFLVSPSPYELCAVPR

As for `O=c1cc(N2CCCCC2)c(-c2ccccc2)nn1Cc1cccc(F)c1`, in series [1], the AC50 was 4.74 µM (active). Moreover, the IC50 in [2] was > 50 µM (not active).

For `CC1(C)N=C(N)N=C(N)N1c1cccc(OCc2cccc([N+](=O)[O-])c2)c1`, the AC50 is 3.16 µM (inconclusive) on Cytochrome P450 2D6, 5.01 µM (inconclusive) on Cytochrome P450 1A2 and “inconclusive” on Cytochrome P450 2C19. On to `COc1ccc(C(NC(=O)c2ccc(-c3ccccc3)cc2)c2ccccc2)cc1` (stereo not given), for which, in series [2], the IC50 is given as > 50 µM (not active). Same read-out and setting: next, `CC(C)c1onc(C(=O)Nc2cccnc2Cl)c1[N+](=O)[O-]`: 22.5 µM (not active). As for `O=C(Nc1ccccc1C(F)(F)F)NC1(C(=O)N2CCOCC2)CCCCC1`, the IC50 in [3] is 4.66 µM (active). Turning to `O=C(O)[C@@H]1[C@@H]2C[C@H]3c4[nH]c5ccccc5c4CCN3C[C@@H]2CC[C@@H]1O`, the figures for the AC50 at Cytochrome P450 2D6 and on Cytochrome P450 1A2 were 7.94 µM (inconclusive) and 12.6 µM (inconclusive), respectively.

Regarding `COc1ccc(C2=Nc3cccc4cccc(c34)N2)cc1`, the AC50 on Cytochrome P450 2D6 is 1.41 µM (inconclusive). On to `O=C(O)CCNc1ccc(Cl)cc1`, for which the 50% inhibitory concentration (IC50) in [3] was 16.9 µM (active). On the same count and under the same terms, as for `CSc1ccc(/C=N/NC(=O)c2cccc(Cl)c2)cc1`, the figure is 13.4 µM (active). Turning to `Cc1ccc(C)c(N2CCN(S(=O)(=O)c3ccc4nc(O)ccc4c3)CC2)c1`, the AC50 in series [4] was 24.2 µM (active). In the case of `O=C(N/N=C/c1cc(Cl)cc([N+](=O)[O-])c1O)c1cc(-c2ccccn2)nc2ccccc12`, the IC50 in [3] was 1.85 µM (active). For the molecule `O=C(N/N=C/c1cccnc1)c1ccc([N+](=O)[O-])cc1`, the concentration at half-maximal activity (AC50) at Cytochrome P450 2D6 was 14.1 µM (inconclusive). As for `CCCN1CCc2cccc3c2[C@@H]1Cc1ccc(O)c(O)c1-3`, the AC50 on Cytochrome P450 2D6 was 10 µM (inconclusive); on Cytochrome P450 3A4, 12.6 µM (inconclusive). Consider `Cc1ccc(CNC(=O)c2ccc3c(=O)n(CC4CCCO4)c(=S)[nH]c3c2)cc1` (stereo not given), for which, in [2], the IC50 is given as 1.19 µM (not active). Still for that read-out and setting: next, `Cc1ccc(NC(=O)CSc2nsc(SCC(=O)Nc3ccc(C)cc3C)c2C#N)c(C)c1`: > 50 µM (not active). As for `CCOc1ccc(Nc2ccc([N+](=O)[O-])c3nonc23)cc1`, the IC50 at Protein skinhead-1 was > 100 µM (inactive); in “cells”, 5.59 µM (active). In the case of `O=[N+]([O-])c1ccc2nc(-c3ccccc3)n(OCc3ccc(Cl)cc3)c2c1`, the IC50 in [3] is 10.1 µM (active).

Consider `COc1ccc2[nH]cc(CCNc3ncnc4ccc(-c5ccc(C(=O)N(C)C)cc5)cc34)c2c1`, for which the figures for the AC50 on Cytochrome P450 2D6 and at Cytochrome P450 1A2 were 25.1 µM (inconclusive) and 12.6 µM (inconclusive), respectively.

Turning to `O=C(O)c1cccc2c1C(=O)N(c1ccc3c(c1)Cc1ccccc1-3)C2=O`, the IC50 in [3] is 7.59 µM (active). Take `CN(CCc1ccccn1)C(=S)NC(=O)c1ccco1`: in [2], the IC50 is given as 19 µM (not active). On to `CNC(=O)c1c(NC(=O)c2ccc(N3C(=O)CCC3=O)cc2)sc2c1CCC(C)C2` (stereo not given), for which the EC50 is 20.7 µM (active) in series [5], 103 µM (active) in the series with Streptococcus and > 150 µM (not active) on Streptokinase A. In addition, the IC50 at Protein skinhead-1 is > 100 µM (inactive). Turning to `CC(/C=C(\O)c1ccc(C)cc1)=N\c1cccc(O)c1`, the IC50 in [2] is given as 4.68 µM (not active).

`Cc1ccc(Cl)cc1NC(=O)CSc1sc2c(O)cc(O)nc2c1C#N`: in series [3], the IC50 was 4.49 µM (active). Turning to `Cc1ccn2c(=O)nc(SCC(=O)NCc3ccco3)nc2c1`, the IC50 in series [3] is 10.8 µM (active). For `Cc1c(Cl)cccc1NC(=O)CC1NCCNC1=O` (stereo not given), the AC50 at Cytochrome P450 2C19 (read-out: AC50) was 39.8 µM (inconclusive); on Cytochrome P450 3A4, 20 µM (inconclusive). Further, the IC50 on Protein skinhead-1 is > 100 µM (inactive). On to `CN(C)c1ccc(-c2cncnc2NCc2cccs2)cc1`, for which, at Cytochrome P450 2D6, the AC50 was 39.8 µM (inconclusive). With `Cc1nc2cnc(Nc3ccccc3)nc2n(C)c1=O`, the AC50 at Cytochrome P450 2D6 was 39.8 µM (inconclusive); at Cytochrome P450 2C9, 20 µM (inconclusive); on Cytochrome P450 3A4 it was 15.8 µM (inconclusive). Turning to `O=C(CNC(=O)c1ccccc1)NCC(=O)OCc1ccc(Cl)cc1`, the AC50 is 20 µM (inconclusive) on Cytochrome P450 2D6, 0.1 µM (inconclusive) on Cytochrome P450 2C9, 20 µM (inconclusive) at Cytochrome P450 2C19 (read-out: AC50) and 14.1 µM (inconclusive) on Cytochrome P450 3A4.

These data come from ChEMBL document CHEMBL1201862, “PubChem BioAssay data set” (2004).
